Source: the supplement of paper PMC10307832

Compound: CO[C@@H]1[C@H](N(C)C(=O)c2ccccc2)C[C@H]2O[C@]1(C)n1c3ccccc3c3c4c(c5c6ccccc6n2c5c31)C(=O)NC4 [Midostaurin] + CC(=O)Nc1cccc(-n2c(=O)n(C3CC3)c(=O)c3c(Nc4ccc(I)cc4F)n(C)c(=O)c(C)c32)c1 [Trametinib] (partner 0.02 µM)
Assay: relative viability (nuclei count vs DMSO), 5 days (fraction); higher = more cells survive
Details: first compound 0.1 µM
Procedure, shortened: (§1)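 Lung cancer cell lines in 1536-well plates got either a single drug or a fixed anchor-drug dose together with five library-drug doses (not always all listed) in √10 steps, by pin tool, on the day after seeding. Nuclei were counted after 5 days, and relative viability is the treated-to-vehicle ratio of nuclei counts. Values are medians of duplicate plates.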

Cell Line	relative viability
NCI-H1437	0.588

Same assay, conditions: first compound 0.3162 µM

Cell Line	relative viability
NCI-H2087	0.273
H3255	0.628
LOU-NH91	0.804
ChaGo-K-1	0.915
NCI-H2405	0.607
HOP-62	0.362
HCC-44	1.05
LU99A	0.456
BEN	1.25
HARA	0.393
HCC-78	0.463
NCI-H322M	0.568
LCLC-97TM1	0.184
A-427	0.637
NCI-H441	0.343
NCI-H1734	0.685
NCI-H460	0.12
NCI-H2347	0.337
201T	0.795
NCI-H1915	0.271
HCC-827	0.641
LXF-289	0.685
NCI-H23	0.299
NCI-H647	0.372
NCI-H1651	0.949
EPLC-272H	0.301
NCI-H1792	0.338
NCI-H1355	0.487
NCI-H3122	0.264
NCI-H1437	0.518

Compound: COc1cc(-c2nn([C@H]3CC[C@H](N4CCN(C(C)=O)CC4)CC3)c3ncnc(N)c23)ccc1NC(=O)c1cc2ccccc2n1C + C[C@@H](Oc1cc(-c2cnn(C3CCNCC3)c2)cnc1N)c1c(Cl)ccc(F)c1Cl [Crizotinib] (partner 1 µM)
Assay: as above
Details: first compound 0.0128 µM
Procedure, shortened: as §1

Cell Line	relative viability
NCI-H2087	1.1
H3255	0.938
LOU-NH91	0.745
ChaGo-K-1	1.17
NCI-H2405	0.827
HOP-62	0.887
HCC-44	0.931
LU99A	0.629
BEN	0.8
HARA	1.02
HCC-78	0.338
NCI-H322M	0.999
LCLC-97TM1	0.364
A-427	1.04
NCI-H441	0.841
NCI-H1734	0.745
NCI-H460	0.854
NCI-H2347	0.795
201T	1.02
NCI-H1915	0.87
HCC-827	0.903
LXF-289	0.863
NCI-H23	0.534
NCI-H647	1.03
NCI-H1651	0.902
EPLC-272H	0.974
NCI-H1792	0.958
NCI-H1355	1.15
NCI-H3122	0.289
NCI-H1437	1.06

Same assay, conditions: first compound 0.04048 µM

Cell Line	relative viability
NCI-H2087	1
H3255	0.981
LOU-NH91	0.811
ChaGo-K-1	1.13
HOP-62	0.957
HCC-44	0.825
LU99A	0.522
BEN	0.996
HARA	1.1
HCC-78	0.432
NCI-H322M	0.871
LCLC-97TM1	0.409
A-427	0.771
NCI-H441	0.621
NCI-H1734	0.596
NCI-H460	1.01
NCI-H2347	0.751
201T	1.05
NCI-H1915	0.942
HCC-827	0.963
LXF-289	0.794
NCI-H23	0.533
NCI-H647	0.858
NCI-H1651	0.908
EPLC-272H	0.924
NCI-H1792	1.01
NCI-H1355	1.07
NCI-H1437	0.877

Same assay, conditions: first compound 0.128 µM

Cell Line	relative viability
NCI-H2087	0.703
H3255	0.81
LOU-NH91	0.753
ChaGo-K-1	1.03
NCI-H2405	0.733
HOP-62	0.803
HCC-44	0.847
LU99A	0.545
BEN	0.756
HARA	0.914
HCC-78	0.325
NCI-H322M	0.767
LCLC-97TM1	0.359
A-427	0.872
NCI-H441	0.655
NCI-H1734	0.669
NCI-H460	0.966
NCI-H2347	0.797
201T	0.941
NCI-H1915	0.866
HCC-827	0.94
LXF-289	0.864
NCI-H23	0.458
NCI-H647	0.886
NCI-H1651	0.81
EPLC-272H	0.984
NCI-H1792	0.88
NCI-H1355	1.06
NCI-H3122	0.269
NCI-H1437	0.922

Same assay, conditions: first compound 1.28 µM

Cell Line	relative viability
NCI-H2087	0.947
H3255	0.468
LOU-NH91	0.638
ChaGo-K-1	0.882
NCI-H2405	0.442
HOP-62	0.714
HCC-44	1.06
LU99A	0.696
BEN	0.576
HARA	0.623
HCC-78	0.18
NCI-H322M	0.878
LCLC-97TM1	0.519
A-427	0.803
NCI-H441	0.705
NCI-H1734	0.56
NCI-H460	0.682
NCI-H2347	0.736
201T	0.815
NCI-H1915	0.869
HCC-827	0.685
LXF-289	0.98
NCI-H23	0.376
NCI-H647	0.541
NCI-H1651	0.712
EPLC-272H	0.701
NCI-H1792	0.896
NCI-H1355	0.946
NCI-H3122	0.229
NCI-H1437	0.846
